Data: patent US20100249175A1, “Dicationic compounds which selectively recognize G-quadruplex DNA” (priority 2005, published 2010)

Legend:
Format in all cases: binding
[1] = test system: d[TGGGGT] (SEQ ID NO: 13); test: CD titration with d[TGGGGT]; settings: 50 mM KCl, 10 mM K2HPO4, 0.1 mM EDTA, pH 7.0
Source text: (§1) The oligonucleotides d[AG3(T2AG3)3] (SEQ ID NO: 1), d[AG3TG4AG3TG4A] (SEQ ID NO: 2), d[G4(T4G4)3] (SEQ ID NO: 3), d[(T2G4)4] (SEQ ID NO: 4), d[(GC)7] (SEQ ID NO: 5), d[[…]] (SEQ ID NO: 6), d[G2T2G2TGTG2T2G2] (SEQ ID NO: 7), d[[…]] (SEQ ID NO: 8), d[[…]] (SEQ ID NO: 9), d[[…]] (SEQ ID NO: 10), d[[…]] (SEQ ID NO: 11), d[TTAGGGT] (SEQ ID NO: 12), and d[TGGGGT] (SEQ ID NO: 13) were purchased with HPLC purification from Midland Certified Reagent Company (The Midland Certified Reagent Company, Inc., Midland, Tex., USA). The concentration of each DNA sample was determined spectrophotometrically at 260 nm using the nearest neighbor extinction coefficient.
(§2) Stock solutions of individual dicationic polyaryl compounds were prepared in double distilled water and diluted to working concentrations immediately before use with buffer. […] Absorbance spectra were obtained on a Varian Cary 300 BIO UV-visible spectrophotometer (Varian, Inc., Palo Alto, Calif., United States of America) in a quartz cell with a 1 cm pathlength. CD spectra were recorded using a Jasco J-810 spectrapolarimeter (Jasco, Inc., Easton, Md., United States of America) in a 1-cm cell using an instrument scanning speed of 50 nm/min with a response time of 1 s. The spectra were averaged over four scans. A buffer baseline scan was collected in the same cuvette and subtracted from the average scan for each sample. […]

[2] = test system: Tetrahymena telomere, d[(T2G4)4] (SEQ ID NO: 4); test: CD titration with Tetrahymena telomere; settings: HEPES buffer containing 50 mM KCl
Source text: as §1
Stock solutions of individual dicationic polyaryl compounds were prepared in double distilled water and diluted to working concentrations immediately before use with buffer. All measurements were performed at 20° C. in a 10 mM HEPES buffer (pH 7.4) containing 3 mM EDTA and 50 mM KCl, NaCl, or LiCl. Absorbance spectra were obtained on a Varian Cary 300 BIO UV-visible spectrophotometer (Varian, Inc., Palo Alto, Calif., United States of America) in a quartz cell with a 1 cm pathlength. CD spectra were recorded using a Jasco J-810 spectrapolarimeter (Jasco, Inc., Easton, Md., United States of America) in a 1-cm cell using an instrument scanning speed of 50 nm/min with a response time of 1 s. The spectra were averaged over four scans. […]

[3] = test system: modified human telomere sequences; test: CD titration with modified human telomere sequences; settings: 50 mM KCl, 10 mM K2HPO4, 0.1 mM EDTA, pH 7.0
Source text: as §1, §2

[4] = test system: telomeric G-quadruplex DNA sequence d[AG3(T2AG3)3] (SEQ ID NO: 1); test: CD titration of compounds into human telomeric G-quadruplex DNA (induced CD)
Source text: as §1
Stock solutions of individual dicationic polyaryl compounds were prepared in double distilled water and diluted to working concentrations immediately before use with buffer. All measurements were performed at 20° C. in a 10 mM HEPES buffer (pH 7.4) containing 3 mM EDTA and 50 mM KCl, NaCl, or LiCl. Absorbance spectra were obtained on a Varian Cary 300 BIO UV-visible spectrophotometer (Varian, Inc., Palo Alto, Calif., United States of America) in a quartz cell with a 1 cm pathlength. CD spectra were recorded using a Jasco J-810 spectrapolarimeter (Jasco, Inc., Easton, Md., United States of America) in a 1-cm cell using an instrument scanning speed of 50 nm/min with a response time of 1 s. The spectra were averaged over four scans. A buffer baseline scan was collected in the same cuvette and subtracted from the average scan for each sample. Appropriate amounts of dicationic compound stock solution or DNA were added sequentially to increase the molar ratio.
When an achiral ligand binds tightly to a chiral host, such as DNA, a CD signal is induced in the wavelength region corresponding to the absorbance of the ligand. […] An additional negative band centered at 395 nm overlaps with the higher energy exciton band. […] Restriction of the rotational and translational freedom of the two molecules of the dimer relative to each other will cause an increase in the rotational strength of the induced CD band, resulting in a large ellipticity. See Allenmark, S., Chirality, 15, 409-422 (2003).
Some compounds appeared to bind to the telomeric G-quadruplex DNA sequence d[AG3(T2AG3)3] […] Relative strength of the induced CD is indicated by the number of (+) marks.

## N=C(N)c1ccc(-c2ccc(-c3ccc(C(=N)N)o3)o2)cc1 [Compound 8, 5′-(4-Amidinophenyl)-2,2′-bifuran-5-carboxamidine]
[1]
  induced CD / exciton splitting (in words): does not show any induced CD or exciton splitting
[2]
  exciton splitting in CD spectra (in words): exhibited exciton splitting
[3]
  exciton splitting in CD spectra (in words): exhibited exciton splitting
[4]
  exciton splitting in CD spectra (in words): induced exciton splitting
[4]; G-Quadruplex Affinity
  Induced CD (exciton): +++++
